Measurements from patent US20240002326A1, “COMPOUNDS AND USE THEREOF IN METHODS OF TREATMENT” (The University of Queensland, priority 2016, published 2024).

Columns and labels:
[1] = Cytotoxicity assay (Alamar blue), COS-7; assay type: cell-based, Monkey; conditions: chlorocebus aethiops, COS-7 cells; COS7, 24 h; read-out: In vitro cytotoxicity CC50 ± SD COS7
Description: Cell toxicity was determined using Alamar blue, as previously described (McMillian et al., 2002). COS-7 cells were seeded as 7000 cells per well in black wall clear bottom 96-well plates in DMEM medium (Life Technologies Australia) with 10% FBS. HepG2 and HEK293 cell lines, from ATCC, were seeded as 5000 cells per well in black wall clear bottom 384-well cell culture plates in DMEM with 1% FBS. Cells were cultured for 24 h at 37° C., 5% CO2. A serial dilution of compounds was added, with a final DMSO concentration adjusted to 0.5% v/v. Cells were incubated for another 24 h. 1 Triton X-100 was used as negative control, and 0.5% DMSO as positive control. 5 μM Alamar blue was added to each well and fluorescence was measured (λexc=560 nm, λem=590 nm) after 2 h incubation at 37° C. Data were analysed using Prism software.

[2] = target: SOX18 (Mus musculus (Mouse), UniProt P43680); assay: Cell-based luciferase SOX18-dependent transactivation (Vcam1 promoter) in COS-7; conditions: COS7, 24 h, read-out: In vitro efficacy in cell IC50 ± SD COS7 (Luc)
Chain of SOX18 (P43680 whole entry): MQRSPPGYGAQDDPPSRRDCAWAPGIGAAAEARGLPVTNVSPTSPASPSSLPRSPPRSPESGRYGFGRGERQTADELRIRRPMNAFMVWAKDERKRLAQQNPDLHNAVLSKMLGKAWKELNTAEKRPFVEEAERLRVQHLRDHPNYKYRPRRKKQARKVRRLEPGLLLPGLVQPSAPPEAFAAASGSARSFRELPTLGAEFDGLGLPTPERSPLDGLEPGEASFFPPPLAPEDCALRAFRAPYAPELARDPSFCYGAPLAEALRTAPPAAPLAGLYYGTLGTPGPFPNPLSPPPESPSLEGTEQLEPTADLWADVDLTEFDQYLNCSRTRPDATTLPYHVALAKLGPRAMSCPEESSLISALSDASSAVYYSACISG
Description: Monkey kidney fibroblast-like cells (COS-7) were cultured at 37° C., 5% CO2 in DMEM (Life technologies, 11995) with FBS, sodium pyruvate, L-glutamine, penicillin, streptomycin, non-essential amino acids and HEPES. Cells were grown in 96-well plates to 80% confluency, and transfected with mouse plasmids pGL2 Vcam 1 promoter construct (VC1889) and pSG5 Sox18, using X-tremeGENE 9 DNA transfection reagent (Roche, 06365787001) (Hosking et al., 2004, Duong et al., 2014). After 4-6 h transfection, cells were incubated with compounds in 0.5% FBS medium for another 24 h, before lysis and luciferase assay (Perkin Elmer, 6016711).

[3] = target: full-length mouse SOX18 (Mus musculus (Mouse), UniProt P43680); assay: FP DNA-binding competition assay, full-length SOX18; conditions: full-length mouse SOX18, Prox1-DNA probe, read-out: FP IC50 ± SD
Chain of full-length mouse SOX18 (P43680 whole entry): as above
Description: Full-length mouse SOX18. A N-terminally tagged mouse HIS-GST-SOX18 was recombinantly expressed in Sf9 cells, purified on GST resin (GE Healthcare Life Sciences, Sweden) and eluted in Tris buffer (50 mM Tris, 500 mM NaCl, 10 mM reduced glutathione, pH 8.0). cDNA clone of mouse Sox18 was PCR amplified and cloned into the pOPIN-GST vector, to generate N-terminally tagged HIS-GST-SOX18. A sequence verified construct was co-transfected with flashBACULTRA (Oxford Expression Technologies, Oxford, United Kingdom) baculovirus DNA onto Spodoptera frugiperda Sf9 cells to obtain recombinantly expressed HIS-GST-SOX18. High Five cells (BTI-TN-5B1-4) in Sf-900™ II serum-free medium were infected at cell density of 1.5×10^6 cells/mL with a multiplicity of infection (MOI) of 5 PFU/cell, and incubated at 21° C. for 144 h before harvest. The cell pellet from 100 mL of expression culture was resuspended in 30 mL of phosphate lysis buffer (50 mM sodium phosphate, 500 mM sodium chloride, 1% Triton X-100, 2 mM magnesium chloride, one tablet of cOmplete Protease Inhibitor Cocktail, pH 7.5) and sonicated on ice for 20 s. The cell lysate was centrifuged at 17,000×g for 40 min at 4° C. Supernatant was incubated with Benzonase Nuclease (Merck Millipore) for 1 h at room temperature for DNA degradation, before being mixed with 500 μL GST resin (GE Healthcare Life Sciences, Sweden) and incubated on a rotating wheel at room temperature for 1 h. The sample was centrifuged at 500×g for 1 min to remove unbound protein in the supernatant. The resin was further washed with 50 resin volumes (RV) wash buffer (50 mM sodium phosphate, 500 mM NaCl, pH 7.5), with unbound protein removed by centrifugation as above. Bound protein was eluted from the resin with 3×1 RV elution buffer (50 mM Tris, 500 mM NaCl, 10 mM reduced glutathione, pH 8.0), collecting the supernatant by centrifugation as above.
The DNA-binding competition assay was performed in black 384-well plates, with mouse full length SOX18, or SOX-HMG fragments. All experiments were performed using a fluorescently-labelled Prox1-DNA element. Controls consisted of free labelled DNA (low FP milli-Polarization index, mP), labelled DNA in presence of protein (negative control, high mP), and labelled DNA and protein in presence of competing excess of unlabelled DNA (positive control, low mP)
The DNA-binding competition assay was performed in 25 uL, in black 384-well plates, using either 30 mM HEPES (N-2-Hydroxyethylpiperazine-N′-2-Ethanesulfonic Acid) (pH 7.5, with 100 mM KCl, 40 mM NaCl, 10 mM NH4OAc, […], 2 mM MgCl2, 0.5 mM EDTA, 0.01% NP-40) for mouse full length SOX18, or Tris-NaCl (10 mM Tris pH 8.0 and 100 mM NaCl) for SOX-HMG fragments. All experiments were performed using a 40 bp double-stranded Prox1-DNA element with 5′ fluorescein amidite (FAM) label (Sigma Proligo or InVitrogen). Optimum binding levels were obtained at 200 nM of mouse full length SOX18 and 60 nM of SOX-HMG fragment, in presence of 5 nM labelled DNA. Controls consisted of free labelled DNA (low FP milli-Polarization index, mP), labelled DNA in presence of protein (negative control, high mP), and labelled DNA and protein in presence of 400 time competing excess of unlabelled DNA (positive control, low mP). Depending on compound, final DMSO concentrations ranged from 2 to 3.33% v/v. After mixing protein, DNA probe and compound, plates were sealed and briskly agitated in the dark for 5 minutes at room temperature, 10 minutes at 37° C., and 30 minutes at room temperature, before reading fluorescence polarization on a Tecan M1000Pro (λexc=485 nm, λem=525 nm). All experiments were performed in triplicates.

[4] = test system: 4T1.2 mammary carcinoma cells; assay: 4T1.2 mammary carcinoma mouse model of breast cancer metastasis; assay type: in vivo, BALB/c mice; conditions: 25 mg/kg/day oral, day 3 to day 12

Row | IC50 [2] [µM] | IC50 [3] [µM] | Compound | CC50 at 24 h [1] [µM] | median latency (survival) [4] [days]
1 | 50.5 ± 7.6 | 375 ± 84 | O=C(O)c1cccnc1Nc1cccc(C(F)(F)F)c1 [Nifumic acid, niflumic acid, reference compound] | > 200 | –
2 | – | – | CC(=O)Oc1ccccc1C(=O)O [Aspirin] | – | 34
3 | – | 163 ± 17.7 | Cc1ccc(Cl)c(Nc2ccccc2C(=O)O)c1Cl [Meclofenamic acid, reference compound] | 16 ± 0.3 | –
